# Calls of active or inactive are those of the source. The calls are words filed in the database; no cut-off is given here.
# How the values were obtained:
# [1] = molecular target: T1, Bromodomain-containing protein 4 (Homo sapiens, UniProt O60885); experiment: Inhibition of BRD4 (unknown origin) incubated for 120 mins by TR-FRET assay
# [2] = molecular target: T2, Nicotinamide phosphoribosyltransferase (Homo sapiens, UniProt P43490); experiment: Inhibition of recombinant NAMPT (unknown origin) by fluorescence based assay
# Target sequence in this assay (P43490 whole entry): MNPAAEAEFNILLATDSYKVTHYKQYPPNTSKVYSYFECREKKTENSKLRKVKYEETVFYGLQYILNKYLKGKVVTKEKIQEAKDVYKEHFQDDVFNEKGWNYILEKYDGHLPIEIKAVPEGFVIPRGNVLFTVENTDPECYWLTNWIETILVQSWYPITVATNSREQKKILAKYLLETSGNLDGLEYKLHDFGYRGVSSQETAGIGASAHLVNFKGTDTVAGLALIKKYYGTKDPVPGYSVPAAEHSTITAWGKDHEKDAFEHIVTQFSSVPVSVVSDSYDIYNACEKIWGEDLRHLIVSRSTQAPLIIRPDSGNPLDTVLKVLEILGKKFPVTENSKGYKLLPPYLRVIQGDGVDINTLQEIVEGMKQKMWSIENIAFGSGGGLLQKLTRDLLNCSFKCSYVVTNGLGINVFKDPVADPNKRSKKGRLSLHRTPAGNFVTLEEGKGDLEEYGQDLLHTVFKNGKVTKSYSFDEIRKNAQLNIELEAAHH
# [3] = test system: Hep 3B2; experiment: Antiproliferative activity against NMN-treated human Hep3B cells incubated for 120 hrs by MTT assay; format: functional, cell-based
# [4] = test system: Hep 3B2; experiment: Antiproliferative activity against NAMN-treated human Hep3B cells incubated for 120 hrs by MTT assay; format: functional, cell-based
# [5] = test system: Hep 3B2; experiment: Antiproliferative activity against NMN/NAMN-treated human Hep3B cells incubated for 120 hrs by MTT assay; format: functional, cell-based
# [6] = test system: HCCLM3; experiment: Antiproliferative activity against NMN-treated human HCCLM3 cells incubated for 120 hrs by MTT assay; format: functional, cell-based
# [7] = test system: HCCLM3; experiment: Antiproliferative activity against NAMN-treated human HCCLM3 cells incubated for 120 hrs by MTT assay; format: functional, cell-based
# [8] = molecular target: T1, Bromodomain-containing protein 4; experiment: Inhibition of BRD4 BD1/2 (unknown origin) incubated for 120 mins by TR-FRET assay
# [9] = molecular target: T1, Bromodomain-containing protein 4; experiment: Inhibition of BRD4 BD1 (unknown origin) incubated for 120 mins by TR-FRET assay
# [10] = molecular target: Bromodomain testis-specific protein (Homo sapiens, UniProt Q58F21); experiment: Inhibition of BRDT BD1 (unknown origin) incubated for 120 mins by TR-FRET assay
# [11] = molecular target: T1, Bromodomain-containing protein 4; experiment: Inhibition of BRD4 in human Hep3B cells assessed as decrease in c-Myc level at 1 to 10 uM measured after 72 hrs by immunoblot analysis; format: cell-based; settings: dose 1-10 µM
# [12] = molecular target: T1, Bromodomain-containing protein 4; experiment: Inhibition of BRD4 in human Hep3B cells assessed as decrease in YAP1 level at 1 to 10 uM measured after 72 hrs by immunoblot analysis; format: cell-based; settings: dose 1-10 µM
# [13] = test system: Hep 3B2; experiment: Downregulation of NAMPT level in human Hep3B cells at 1 to 10 uM measured after 72 hrs by immunoblot analysis; format: functional, cell-based; settings: dose 1-10 µM
# [14] = molecular target: T2, Nicotinamide phosphoribosyltransferase; experiment: Inhibition of NAMPT in human HCCLM3 cells assessed as decrease in NAD+ level at 10 uM measured after 72 hrs by WST-8 assay; format: cell-based
# Target sequence in this assay (P43490 whole entry, looked up): as the sequence (P43490 whole entry) above
# [15] = test system: Hep 3B2; experiment: Induction of apoptosis in human Hep3B cells assessed as viable cells at 1 uM measured after 72 hrs by Annexin V-FITC/PI staining based flow cytometry (reference value: 94.08 %); format: functional; settings: read-out: Activity
# [16] = test system: Hep 3B2; experiment: Induction of apoptosis in human Hep3B cells assessed as early apoptotic cells at 1 uM measured after 72 hrs by Annexin V-FITC/PI staining based flow cytometry (reference value: 2.13 %); format: functional
# [17] = test system: Hep 3B2; experiment: Induction of apoptosis in human Hep3B cells assessed as necrotic cells at 1 uM measured after 72 hrs by Annexin V-FITC/PI staining based flow cytometry (reference value: 2.74 %); format: functional
# [18] = test system: Hep 3B2; experiment: Induction of apoptosis in human Hep3B cells assessed as viable cells at 5 uM measured after 72 hrs by Annexin V-FITC/PI staining based flow cytometry (reference value: 94.08 %); format: functional; settings: read-out: Activity
# [19] = test system: Hep 3B2; experiment: Induction of apoptosis in human Hep3B cells assessed as early apoptotic cells at 5 uM measured after 72 hrs by Annexin V-FITC/PI staining based flow cytometry (reference value: 2.13 %); format: functional
# [20] = test system: Hep 3B2; experiment: Induction of apoptosis in human Hep3B cells assessed as late apoptotic cells at 5 uM measured after 72 hrs by Annexin V-FITC/PI staining based flow cytometry (reference value: 1.05 %); format: functional
# [21] = test system: Hep 3B2; experiment: Induction of apoptosis in human Hep3B cells assessed as necrotic cells at 5 uM measured after 72 hrs by Annexin V-FITC/PI staining based flow cytometry (reference value: 2.74 %); format: functional
# [22] = test system: Hep 3B2; experiment: Induction of apoptosis in human Hep3B cells assessed as viable cells at 10 uM measured after 72 hrs by Annexin V-FITC/PI staining based flow cytometry (reference value: 94.08 %); format: functional; settings: Homo sapiens, Hep3B, read-out: Activity
# [23] = test system: Hep 3B2; experiment: Induction of apoptosis in human Hep3B cells assessed as early apoptotic cells at 10 uM measured after 72 hrs by Annexin V-FITC/PI staining based flow cytometry (reference value: 2.13 %); format: functional
# [24] = test system: Hep 3B2; experiment: Induction of apoptosis in human Hep3B cells assessed as late apoptotic cells at 10 uM measured after 72 hrs by Annexin V-FITC/PI staining based flow cytometry (reference value: 1.05 %); format: functional
# [25] = test system: Hep 3B2; experiment: Induction of apoptosis in human Hep3B cells assessed as necrotic cells at 10 uM measured after 72 hrs by Annexin V-FITC/PI staining based flow cytometry (reference value: 2.74 %); format: functional
# [26] = test system: Hep 3B2; experiment: Induction of cell cycle arrest at G0/G1 phase in human Hep3B cells at 1 uM measured after 72 hrs by PI/RNase staining based flow cytometry (reference value: 56.73 %); format: functional
# [27] = test system: Hep 3B2; experiment: Induction of cell cycle arrest at G2/M phase in human Hep3B cells at 1 uM measured after 72 hrs by PI/RNase staining based flow cytometry (reference value: 11.37 %); format: functional
# [28] = test system: Hep 3B2; experiment: Induction of cell cycle arrest at S phase in human Hep3B cells at 1 uM measured after 72 hrs by PI/RNase staining based flow cytometry (reference value: 31.90 %); format: functional
# [29] = test system: Hep 3B2; experiment: Induction of cell cycle arrest at G0/G1 phase in human Hep3B cells at 5 uM measured after 72 hrs by PI/RNase staining based flow cytometry (reference value: 56.73 %); format: functional
# [30] = test system: Hep 3B2; experiment: Induction of cell cycle arrest at G2/M phase in human Hep3B cells at 5 uM measured after 72 hrs by PI/RNase staining based flow cytometry (reference value: 11.37 %); format: functional
# [31] = test system: Hep 3B2; experiment: Induction of cell cycle arrest at G0/G1 phase in human Hep3B cells at 10 uM measured after 72 hrs by PI/RNase staining based flow cytometry (reference value: 56.73 %); format: functional
# [32] = test system: Hep 3B2; experiment: Induction of cell cycle arrest at S phase in human Hep3B cells at 10 uM measured after 72 hrs by PI/RNase staining based flow cytometry (reference value: 31.90 %); format: functional
# [33] = test system: Hep 3B2; experiment: Antimigratory activity in human Hep3B cells measured upto 24 hrs by wound healing assay; format: functional, cell-based; settings: dose 1-10 µM
# [34] = test system: Hep 3B2; experiment: Antimigratory activity in human Hep3B cells measured upto 24 hrs by transwell assay; format: functional, cell-based; settings: dose 1-10 µM
# [35] = test system: HCCLM3; experiment: Antitumor activity against human HCCLM3 cells xenografted in BALB/c nude mouse assessed as tumor growth suppression administered intraperitoneally for 27 days; format: functional; settings: dose 40-80 mg/kg, route ip, time 27.0 day
# [36] = test system: HCCLM3; experiment: Antitumor activity against human HCCLM3 cells xenografted in BALB/c nude mouse at 80 mg/kg, ip for 27 days relative to control; format: functional; settings: HCCLM3, 648 h, time 27 day, read-out: TGI
# [37] = Toxicity in BALB/c nude mouse xenografted with human HCCLM3 cells assessed as body weight loss at 40 to 80 mg/kg, ip for 27 days; format: organism-based; settings: in vivo, 648 h, dose 40-80 mg/kg, time 27 day
# [38] = test system: Hep 3B2; experiment: cells; settings: Homo sapiens, Hep3B, 120 h
# [39] = test system: HCCLM3; experiment: cells; settings: Homo sapiens, HCCLM3, 120 h
compound,measurement,setting,value
Cc1sc2c(c1C)C(c1ccc(Cl)cc1)=N[C@@H](CC(=O)NCCCNC(=O)/C=C/c1cccnc1)c1nnc(C)n1-2,IC50,[1],58 nM
same,IC50,[2],35 nM
same,Activity,[3],inactive
same,Activity,[4],inactive
same,Activity,[5],inactive
same,Activity,[6],inactive
same,Activity,[7],inactive
same,IC50,[8],58 nM
same,IC50,[9],12 nM
same,IC50,[10],354 nM
same,inhibition,[11],Active
same,inhibition,[12],Active
same,Activity,[13],Active
same,inhibition,[14],Active
same,viability at 1 µM,[15],83.9%
same,Activity,[16],8.83%
same,Activity,[17],2.69%
same,viability at 5 µM,[18],74.7%
same,Activity,[19],14.49%
same,Activity,[20],6.24%
same,Activity,[21],4.6%
same,viability at 10 µM,[22],72.1%
same,Activity,[23],18.89%
same,Activity,[24],6.56%
same,Activity,[25],2.43%
same,Activity,[26],66.06%
same,Activity,[27],9.76%
same,Activity,[28],24.18%
same,Activity,[29],71.08%
same,Activity,[30],8.35%
same,Activity,[31],76.25%
same,Activity,[32],18.21%
same,Activity,[33],Dose-Dependent Effect
same,Activity,[34],Dose-Dependent Effect
same,Activity,[35],Dose-Dependent Effect
same,inhibition in vivo at 80 mg/kg,[36],58.2%
same,Activity,[37],Non-Toxic
same,IC50,[38],2370 nM
same,IC50,[39],5.44 µM
